Assay results published in US6794409B2, “Use of ERβ-selective ligands for regulating fertility and compounds useful therefor” (priority 2001, dated 2004).
Read-outs that look alike come from different tables or passages of the source.

How the values were obtained:
hERβ [1] = assay: Relative binding affinity to hERβ (Kuiper et al.); design: species or system human; conditions: quotient of RBA hERβ / hERα
Text: (§1) In this case, it is assumed that ERβ predominates in the rat prostates over ERα, and ERα predominates in rat uteri over ERβ.

[2] = test system: estrogen receptor preparations from rat uteri; assay: Competitive 3H-estradiol binding, rat uterus cytosol; conditions: 3H-estradiol as ligand, estradiol = 100
Text: as §1

[3] = test system: estrogen receptor preparations from rat prostates; assay: Competitive 3H-estradiol binding, rat prostate cytosol
Text: as §1

hERβ [4] = conditions: cited from earlier work
[5] = test system: hypophysectomized immature female Wistar rats; assay: Effect on late folliculogenesis and ovulation in hypophysectomized rats; format: in vivo, rat; conditions: hypex immature Wistar rats; 0.01, 0.1 and 1 mg/day s.c. for 4 days, then PMSG and hCG; FIG. 3
Experimental: Intact immature female Wistar rats were hypophysectomized (hypex) on day 24 of age (day 0). The following hormone treatments were initiated six days after surgery:
(§2) (a) hypex rats treated with vehicle (control group) (ethanol/arachisoil: 1+9 [v/v]) only
(b) hypex rats treated with 0.01, 0.1 and 1 mg 17β-estradiol/day
(c) hypex rats treated with 0.01, 0.1 and 1 mg of the ERα-selective compound B
(d) hypex rats treated with 0.01, 0.1 and 1 mg of the […] compound C
Animals were subcutaneously treated once per day for 4 consecutive days with the respective compounds or vehicle (day 6, 7, 8, 9). Number of animals per group were […]. The animals were randomly assigned to the treatment and vehicle (control) group.
One day after the last injection (day 10) animals were subcutaneously injected with 20 IU prgenant mare serum gonadotropin (PMSG). Two days later, at […], 10 IU human Chorionic Gonadotropin (hCG) were injected intraperitoneally in order to induce ovulation. At day 14 animals were weighed and sacrificed by carbon dioxide asphyxiation. The oviducts and ovaries were removed:
The oviducts were flushed with a M-2 medium and the oocytes per animal were counted after enzymatic disassociation from the surrounding cumulus with M-2 medium supplemented with 0.3% hyaluironidase. For each treatment group and control group the mean number of ovulated oocytes were calculated.
The ovaries were excised and weighed. Relative ovarian weights (in milligrams), defined as relative ovarian wet weights, were calculated per 100 g body weight for each animal. For each treatment group and control group the mean relativewet weights were determined.
The one way ANOVA was applied to the data in order to compare treatment group values with the respective control group.

[6] = test system: hypophysectomized immature female Wistar rats; assay: Effect of ER-selective ligands on folliculogenesis in hypophysectomized rats; format: in vivo, rat; conditions: hypex immature Wistar rats
Text: Intact immature female Wistar rats were hypophysectomized (hypex) on day 24 of age (d0). The following hormone treatments were initiated six days after surgery:
as §2
Animals were subcutaneously treated once per day for 4 consecutive days with the respective compounds or vehicle (day 6, 7, 8, 9). Number of animals per group were 5-6. The animals were randomly assigned to the treatment and vehicle (control) group.
One day after the last injection (day 10) animals were weighed and sacrificed by carbon dioxide asphyxiation. The ovaries were excised and weighed. Relative ovarian weights (in milligrams), defined as relative ovarian wet weights, were calculated per 100 g body weight for each animal. For each treatment group and control group the mean relative wet weights were determined. The one way ANOVA was applied to the data in order to compare treatment group values with the respective control group.
For histological evaluation, ovaries were placed in neutral buffered 3.7% formaldehyde solution. The ovaries were then embedded in paraffin, cut into 4 μm transverse sections, and stained with hematoxylin and eosin. Ovarian sections were then evaluated qualitatively for folliculogenesis.

[7] = test system: intact immature female Wistar rats; assay: Effect on ovulation rate after superovulation (PMSG/hCG) of immature rats; format: in vivo, rat
Experimental: Superovulation experiments were carried out in three groups of intact immature female Wistar rats on day 23 of age. Number of animals per group were 5. The animals were randomly assigned to the three groups.
Each animal received a single subcutaneous (s.c.) injection of 20 I.U. pregnant mare's serum gonadotropin (PMSG) at day 0. At the same time (day 0) as well as 24 hours and 48 hours later the animals were s.c. injected with
(a) the vehicle formulation (control group: ethanol/aracisoil: 1+9 [v/v]) (group 1) or
(b) an ERβ- selective antagonist 17-Chloro-17aα-(trifluoromethyl)-17a-homoestra-1,3,5(10)16-tetraene-3,17aβ-diol (compound E) at the dose of 1 mg/kg (group 2) and 10 mg/kg (group 3). 54 hours after the start of the experiment the animals got a single intraperitoneal (i.p.) injection of 10 I.U. human chorion gonadotropin (hCG). The animals were then killed 16 hours after the hCG injection.
The ovaries and oviducts were removed. The ovulated oocyte/cumulus mass was extracted from the oviduct by flushing the oviduct with M-2 medium and the oocytes per animal were counted after enzymatic disassociation from the surrounding cumulus with M-2 medium supplemented with 0.3% hyaluronidase.

Which results are given for `C[C@]12CC[C@H]3[C@@H](CC=C4C[C@@H](O)CC[C@@]43C)[C@@H]1CC[C@@H]2O` [5-Androstenediol]?
ERβ/ERα (hERβ [1]): 3; Rat uterus ER(RBA) [2]: 0.1; Rat prost. ER(RBA) ([3]; rat prostate cytosol, 3H-estradiol as ligand, estradiol = 100): 5; prost. ER/uterus ER ([3]; ratio of RBA rat prostate ER / rat uterus ER): 50; hERβ RBA (hERβ [4]): 17

For `C[C@]12CC[C@@H]3c4ccc(O)cc4CC[C@H]3[C@@H]1C[C@@H](O)[C@@H]2O` [Estriol], which “hERβ RBA” value (hERβ [4]; relative binding affinity, estradiol = 100) is on record?
Its value is 21.

Which results are given for `C[C@]12CC[C@@H]3c4ccc(O)cc4CC[C@H]3[C@@H]1C[C@H]1OC(=O)C[C@]12O` [compound B, 3,17β-Dihydroxy-19-nor-17α-pregna-1,3,5(10)-triene-21,16α-lactone]?
number of ovulated oocytes [5]: not able to significantly stimulate; ovarian wet weight [5]: not able to significantly stimulate; ovarian wet weight ([6]; 0.01, 0.1 and 1 mg/day s.c. for 4 days, FIG. 1): not able to stimulate ovarian growth; folliculogenesis, histological evaluation of ovaries ([6]; s.c. for 4 days, hematoxylin and eosin sections, FIG. 2): many small atretic follicles comparable to the vehicle control group

Which “number of ovulated oocytes” value [5] does the source give for `C=C[C@@]12CCc3cc(O)ccc3[C@H]1CC[C@@]1(C)[C@H]2CC[C@@H]1O` [compound C, 8β-Vinyl-1,3,5(10)-estratriene-3,17β-diol] here?
The value was “significantly increase the number of ovulated oocytes”.

And the ovarian wet weight [5]?
Its ovarian wet weight is “significantly increase”.

With `CC12CCC3c4ccc(O)cc4CCC3C1CC=C(Cl)C2(O)C(F)(F)F` (stereo not drawn) [compound E, 17-Chloro-17aα-(trifluoromethyl)-17a-homoestra-1,3,5(10)16-tetraene-3,17aβ-diol] as the compound, how does the “Ovulation rate (ova/rat) [x ± sd]” value ([7]; 1 mg/kg/day × 3 days s.c., group 2) read?
The value was 11 ± 5.6 ova/rat.

What about the “Ovulation rate (ova/rat) [x ± sd]” value ([7]; 10 mg/kg/day × 3 days s.c., group 3) of the same compound?
The value was 8 ± 7.2 ova/rat.

And the “Ovulation rate (ova/rat) [x ± sd]” value ([7]; 10 mg/kg/day × 3 days s.c., group 3, listed as ERβ-specific antagonist)?
Its value is 8.0 ova/rat.
